According to the OligoGym collection:
Oligonucleotides are written 5' to 3', each unit as a sugar letter and its base; * is a phosphorothioate linkage, no mark a phosphodiester; rarer units and linkages stand in square brackets, end groups in braces. Plain capitals give the bases only. d = 2'-deoxy (DNA); r = 2'-OH (RNA)

Biological target: UBE2H
Test: reporter assay of Huesken 2005
Details: siRNA
Also: test concentration or dose not given here.

Row | Substance | normalised inhibition (eCFP-eYFP dual reporter) [%]
1 | sense rArUrGrGrArCrCrArCrArArGrGrArArCrArCrCdTdT / antisense rGrGrUrGrUrUrCrCrUrUrGrUrGrGrUrCrCrArUdAdA | 34
2 | sense rArCrUrUrGrGrArCrArGrCrUrCrUrCrUrArUrGdTdT / antisense rCrArUrArGrArGrArGrCrUrGrUrCrCrArArGrUdTdT | 86
3 | sense rArUrCrGrArGrArGrUrArArArCrArUrGrArGrGdTdT / antisense rCrCrUrCrArUrGrUrUrUrArCrUrCrUrCrGrArUdGdA | 71.1
4 | sense rCrCrArCrCrGrArCrCrArGrArArGrArArUrArCdTdT / antisense rGrUrArUrUrCrUrUrCrUrGrGrUrCrGrGrUrGrGdAdG | 82.5

Biological target: UFC1
Test: reporter assay of Huesken 2005
Details: siRNA

Row | Substance | normalised inhibition (eCFP-eYFP dual reporter) [%]
5 | sense rGrCrArGrUrUrCrCrUrGrArGrCrUrGrGrArUrGdTdT / antisense rCrArUrCrCrArGrCrUrCrArGrGrArArCrUrGrCdAdA | 80.1
6 | sense rGrCrUrGrArCrArArCrGrArUrUrGrGrUrUrCrCdTdT / antisense rGrGrArArCrCrArArUrCrGrUrUrGrUrCrArGrCdAdT | 78
7 | sense rUrGrArArArUrArUrGrArGrUrUrUrGrArCrArUdTdT / antisense rArUrGrUrCrArArArCrUrCrArUrArUrUrUrCrAdGdG | 75.3
8 | sense rUrGrArCrArUrUrCrCrUrArUrCrArCrArUrArUdTdT / antisense rArUrArUrGrUrGrArUrArGrGrArArUrGrUrCrAdAdA | 115
9 | sense rUrCrArUrCrCrArArCrArCrArArArGrArGrArAdTdT / antisense rUrUrCrUrCrUrUrUrGrUrGrUrUrGrGrArUrGrAdCdG | 93
10 | sense rArUrCrCrArArCrArCrArArArGrArGrArArArUdTdT / antisense rArUrUrUrCrUrCrUrUrUrGrUrGrUrUrGrGrArUdGdA | 69.1
11 | sense rArUrCrArCrArUrArUrCrCrUrArCrUrArCrUrGdTdT / antisense rCrArGrUrArGrUrArGrGrArUrArUrGrUrGrArUdAdG | 69.2
12 | sense rGrArUrCrArUrUrUrCrArArArCrCrUrUrUrGrUdTdT / antisense rArCrArArArGrGrUrUrUrGrArArArUrGrArUrCdCdG | 98.8
13 | sense rArUrCrArGrUrCrCrCrUrUrArUrCrCrGrGrUrAdTdT / antisense rUrArCrCrGrGrArUrArArGrGrGrArCrUrGrArUdAdT | 99.1
14 | sense rUrGrArCrArArCrGrArUrUrGrGrUrUrCrCrGrAdTdT / antisense rUrCrGrGrArArCrCrArArUrCrGrUrUrGrUrCrAdGdC | 76.1
15 | sense rArUrArUrCrCrUrArCrUrArCrUrGrCrCrCrCrAdTdT / antisense rUrGrGrGrGrCrArGrUrArGrUrArGrGrArUrArUdGdT | 78.2
16 | sense rCrArGrCrGrArCrUrGrArArGrGrArGrGrArArUdTdT / antisense rArUrUrCrCrUrCrCrUrUrCrArGrUrCrGrCrUrGdCdA | 100
17 | sense rArGrCrGrArCrUrGrArArGrGrArGrGrArArUrAdTdT / antisense rUrArUrUrCrCrUrCrCrUrUrCrArGrUrCrGrCrUdGdC | 93.1
18 | sense rGrArCrArGrCrArArArGrArUrGrUrArCrArGrGdTdT / antisense rCrCrUrGrUrArCrArUrCrUrUrUrGrCrUrGrUrCdTdT | 50.1
19 | sense rUrGrGrUrUrCrCrGrArCrUrGrGrArGrUrCrCrAdTdT / antisense rUrGrGrArCrUrCrCrArGrUrCrGrGrArArCrCrAdAdT | 71.9
20 | sense rGrGrCrArArArArUrArUrGrCrCrUrGrArCrGrGdTdT / antisense rCrCrGrUrCrArGrGrCrArUrArUrUrUrUrGrCrCdAdC | 99.9
21 | sense rGrGrArCrUrArGrCrUrCrArUrCrUrCrArUrGrGdTdT / antisense rCrCrArUrGrArGrArUrGrArGrCrUrArGrUrCrCdAdA | 61.7

Row | Substance | normalised inhibition (eCFP-eYFP dual reporter) [%]
22 | sense rGrCrArArArGrArUrGrUrArCrArGrGrGrGrUrGdTdT / antisense rCrArCrCrCrCrUrGrUrArCrArUrCrUrUrUrGrCdTdG | 108
23 | sense rCrGrUrCrArUrCrCrArArCrArCrArArArGrArGdTdT / antisense rCrUrCrUrUrUrGrUrGrUrUrGrGrArUrGrArCrGdCdC | 86.3
24 | sense rCrUrUrArUrCrCrGrGrUrArUrGrUrGrGrArGrAdTdT / antisense rUrCrUrCrCrArCrArUrArCrCrGrGrArUrArArGdGdG | 78.4
25 | sense rArUrUrGrCrArGrUrUrCrCrUrGrArGrCrUrGrGdTdT / antisense rCrCrArGrCrUrCrArGrGrArArCrUrGrCrArArUdTdT | 61.6
26 | sense rGrArArCrUrCrGrGrUrGrGrUrUrUrGrGrArArAdTdT / antisense rUrUrUrCrCrArArArCrCrArCrCrGrArGrUrUrCdCdT | 97.7
27 | sense rGrUrArUrArUrCrCrArUrGrArCrCrUrCrCrUrGdTdT / antisense rCrArGrGrArGrGrUrCrArUrGrGrArUrArUrArCdCdA | 96
28 | sense rArArCrArArGrArArUrGrCrUrGrArCrArArCrGdTdT / antisense rCrGrUrUrGrUrCrArGrCrArUrUrCrUrUrGrUrUdGdT | 43.3
29 | sense rUrGrGrGrUrCrCrArUrGrGrCrUrGrGrCrArGrUdTdT / antisense rArCrUrGrCrCrArGrCrCrArUrGrGrArCrCrCrAdGdC | 35.2
30 | sense rArCrUrArGrCrUrCrArUrCrUrCrArUrGrGrCrUdTdT / antisense rArGrCrCrArUrGrArGrArUrGrArGrCrUrArGrUdCdC | 53.8
31 | sense rArCrUrGrArArGrGrArGrGrArArUrArUrCrArGdTdT / antisense rCrUrGrArUrArUrUrCrCrUrCrCrUrUrCrArGrUdCdG | 75.2
32 | sense rArGrUrCrCrArArCrArArGrGrArArGrGrArArCdTdT / antisense rGrUrUrCrCrUrUrCrCrUrUrGrUrUrGrGrArCrUdCdC | 83.5
33 | sense rGrCrCrUrGrArCrGrGrArUrCrArUrUrUrCrArAdTdT / antisense rUrUrGrArArArUrGrArUrCrCrGrUrCrArGrGrCdAdT | 117
34 | sense rUrGrGrCrArGrUrGrGrArArArUrCrCrCrUrGrAdTdT / antisense rUrCrArGrGrGrArUrUrUrCrCrArCrUrGrCrCrAdGdC | 71.4
35 | sense rGrArCrGrGrArUrCrArUrUrUrCrArArArCrCrUdTdT / antisense rArGrGrUrUrUrGrArArArUrGrArUrCrCrGrUrCdAdG | 123
36 | sense rUrUrGrGrArArArArUrGrCrUrGrGrUrArUrArUdTdT / antisense rArUrArUrArCrCrArGrCrArUrUrUrUrCrCrArAdAdC | 56.8
37 | sense rArArGrGrArArCrUrCrGrGrUrGrGrUrUrUrGrGdTdT / antisense rCrCrArArArCrCrArCrCrGrArGrUrUrCrCrUrUdCdC | 32.2
